Assay results as given in patent publication US12077503B2, “Substituted cyclic amides and their use as herbicides” (FMC CORPORATION, priority 2015, dated 2024).
Read-outs that look alike come from different tables or passages of the source.

How the values were obtained:
Format in all cases: in vivo
[1] = system: sedge, umbrella (small-flower umbrella sedge, Cyperus difformis); test: Test B flooded paddy test; conditions: Cyperus difformis, 250 g ai/ha, Flood, read-out: Sedge, Umbrella plant response rating
Method in brief: (§1)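 Compound goes directly into floodwater once pots are flooded 3 cm above soil, targeting plants at two leaves; the water depth is then held for the test duration. Plants sit 13–15 d in a greenhouse and are rated visually, 100 denoting complete control.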

[2] = system: barnyardgrass (Echinochloa crus-galli); test: Test B flooded paddy test; conditions: Echinochloa crus-galli, 250 g ai/ha, Flood, read-out: Barnyardgrass plant response rating
Method in brief: as §1

[3] = system: ducksalad (Heteranthera limosa); test: Test B flooded paddy test; conditions: Heteranthera limosa, 250 g ai/ha, Flood, read-out: Ducksalad plant response rating
Method in brief: as §1

rice (Oryra sativa) = test: Test B flooded paddy test; conditions: Oryza sativa, 250 g ai/ha, Flood, read-out: Rice plant response rating
Method in brief: as §1

[4] = system: wheat (Triticum aestivum); test: Test A postemergence; conditions: Triticum aestivum, post-emergence, 240 h, postemergence; for plant injury at 125 g/ha: 125 g ai/ha
Method in brief: (§2)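 Treatment is preemergence as a directed soil spray after planting, or postemergence at the one- to two-leaf stage, with test chemical in a non-phytotoxic solvent mixture plus surfactant. Plants stay in the greenhouse about 10 d before visual injury scoring on a 0 to 100 scale versus untreated controls.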

Kochia (Kochia scoparia) = test: Test A postemergence; conditions: Bassia scoparia, post-emergence, 240 h, postemergence; for pest or weed control at 125 g/ha: 125 g ai/ha
Method in brief: as §2

corn (Zea mays) = test: Test A postemergence; conditions: Zea mays, post-emergence, 240 h; for plant injury at 125 g/ha: visual injury rating after approximately 10 d, read-out: Corn plant response rating (0 to 100 scale, 0 no effect, 100 complete control)
Method in brief: as §2

[5] = system: barnyardgrass (Echinochloa crus-galli); test: Test A postemergence; conditions: Echinochloa crus-galli, post-emergence, 240 h; for pest or weed control at 125 g/ha: 125 g ai/ha
Method in brief: as §2

[6] = system: ryegrass, Italian (Italian ryegrass, Lolium multiflorum); test: Test A postemergence; conditions: Lolium multiflorum, post-emergence, 240 h, postemergence; for pest or weed control at 125 g/ha: 125 g ai/ha
Method in brief: as §2

[7] = system: Galium (catchweed bedstraw, Galium aparine); test: Test A postemergence; conditions: Galium, post-emergence, 240 h, postemergence; for pest or weed control at 125 g/ha: 125 g ai/ha
Method in brief: as §2

[8] = system: pigweed (Amaranthus retroflexus); test: Test A postemergence; conditions: Amaranthus retroflexus, post-emergence, 240 h, postemergence; for pest or weed control at 125 g/ha: 125 g ai/ha
Method in brief: as §2

[9] = system: ragweed (common ragweed, Ambrosia elatior); test: Test A postemergence; conditions: Ambrosia artemisiifolia, post-emergence, 240 h, postemergence; for pest or weed control at 125 g/ha: 125 g ai/ha
Method in brief: as §2

[10] = system: blackgrass (Alopecurus myosuroides); test: Test A postemergence; conditions: Alopecurus myosuroides, post-emergence, 240 h; for pest or weed control at 125 g/ha: 125 g ai/ha
Method in brief: as §2

[11] = system: giant foxtail (Setaria faberii); test: Test A postemergence; conditions: Setaria faberi, post-emergence, 240 h, postemergence; for pest or weed control at 125 g/ha: 125 g ai/ha
Method in brief: as §2

[12] = system: pigweed (Amaranthus retroflexus); test: Test A preemergence; conditions: Amaranthus retroflexus, pre-emergence, 240 h; for pest or weed control at 125 g/ha: 125 g ai/ha; for pest or weed control at 500 g/ha: 500 g ai/ha
[13] = 0 to 100 scale where 0 is no effect and 100 is complete control
[14] = scale of 0 to 100 where 0 is no effect and 100 is complete control
[15] = visual injury rating after approximately 10 d, read-out: Wheat plant response rating (0 to 100 scale, 0 no effect, 100 complete control)
[16] = visual injury rating after approximately 10 d, read-out: Kochia plant response rating (0 to 100 scale, 0 no effect, 100 complete control)
[17] = postemergence, visual injury rating after approximately 10 d, read-out: Barnyardgrass plant response rating (0 to 100 scale, 0 no effect, 100 complete control)
[18] = visual injury rating after approximately 10 d, read-out: Ryegrass, Italian plant response rating (0 to 100 scale, 0 no effect, 100 complete control)
[19] = visual injury rating after approximately 10 d, read-out: Galium plant response rating (0 to 100 scale, 0 no effect, 100 complete control)
[20] = visual injury rating after approximately 10 d, read-out: Pigweed plant response rating (0 to 100 scale, 0 no effect, 100 complete control)
[21] = visual injury rating after approximately 10 d, read-out: Ragweed plant response rating (0 to 100 scale, 0 no effect, 100 complete control)
[22] = postemergence, visual injury rating after approximately 10 d, read-out: Blackgrass plant response rating (0 to 100 scale, 0 no effect, 100 complete control)
[23] = visual injury rating after approximately 10 d, read-out: Foxtail, Giant plant response rating (0 to 100 scale, 0 no effect, 100 complete control)
[24] = preemergence, 0 to 100 scale where 0 is no effect and 100 is complete control, read-out: Pigweed plant response rating
[25] = Preemergence, visual injury vs untreated controls after approximately 10 d, read-out: Pigweed plant response rating (0 to 100 scale where 0 is no effect and 100 is complete control)

## CC(C)COc1cccc([C@H]2CN(C)C(=O)[C@@H]2C(=O)Nc2cccc(F)c2F)c1 [Compound 1029]
[1]; [13]
  pest or weed control at 250 g/ha: 0%
[2]; [13]
  pest or weed control at 250 g/ha: 0%
[3]; [13]
  pest or weed control at 250 g/ha: 85%
Rice (Oryra sativa); [13]
  pest or weed control at 250 g/ha: 0%
[4]; visual injury on 0 to 100 scale (0 no effect, 100 complete control), approx. 10 d, read-out: Wheat plant response rating
  plant injury at 125 g/ha: 30%
[4]; 500 g ai/ha, visual injury, 0 to 100 scale (0 no effect, 100 complete control), approx. 10 d, read-out: Plant response rating, Wheat
  plant injury at 500 g/ha: 60%
Kochia (Kochia scoparia); visual injury on 0 to 100 scale (0 no effect, 100 complete control), approx. 10 d, read-out: Kochia plant response rating
  pest or weed control at 125 g/ha: 0%
Kochia (Kochia scoparia); 500 g ai/ha, visual injury, 0 to 100 scale (0 no effect, 100 complete control), approx. 10 d, read-out: Plant response rating, Kochia
  pest or weed control at 500 g/ha: 0%
Corn (Zea mays); 125 g ai/ha, Postemergence, visual injury after approximately 10 d, 0 to 100 scale where 0 is no effect and 100 is complete control
  Corn plant response rating (crop injury, 0 = no effect, 100 = complete kill) at 125 g/ha: 50%
Corn (Zea mays); 500 g ai/ha, postemergence, visual injury, 0 to 100 scale (0 no effect, 100 complete control), approx. 10 d
  Corn plant response rating (crop injury, 0 = no effect, 100 = complete kill) at 500 g/ha: 70%
[5]; Postemergence, visual injury after approximately 10 d, 0 to 100 scale where 0 is no effect and 100 is complete control, read-out: Plant response rating, Barnyardgrass
  pest or weed control at 125 g/ha: 80%
[5]; 500 g ai/ha, postemergence, visual injury, 0 to 100 scale (0 no effect, 100 complete control), approx. 10 d, read-out: Plant response rating, Barnyardgrass
  pest or weed control at 500 g/ha: 90%
[6]; visual injury on 0 to 100 scale (0 no effect, 100 complete control), approx. 10 d, read-out: Ryegrass, Italian plant response rating
  pest or weed control at 125 g/ha: 0%
[6]; 500 g ai/ha, visual injury, 0 to 100 scale (0 no effect, 100 complete control), approx. 10 d, read-out: Plant response rating, Ryegrass, Italian
  pest or weed control at 500 g/ha: 40%
[7]; visual injury on 0 to 100 scale (0 no effect, 100 complete control), approx. 10 d, read-out: Galium plant response rating
  pest or weed control at 125 g/ha: 20%
[7]; 500 g ai/ha, visual injury, 0 to 100 scale (0 no effect, 100 complete control), approx. 10 d, read-out: Plant response rating, Galium
  pest or weed control at 500 g/ha: 40%
[8]; visual injury on 0 to 100 scale (0 no effect, 100 complete control), approx. 10 d, read-out: Pigweed plant response rating
  pest or weed control at 125 g/ha: 0%
[8]; 500 g ai/ha, visual injury, 0 to 100 scale (0 no effect, 100 complete control), approx. 10 d, read-out: Plant response rating, Pigweed
  pest or weed control at 500 g/ha: 0%
[9]; visual injury on 0 to 100 scale (0 no effect, 100 complete control), approx. 10 d, read-out: Ragweed plant response rating
  pest or weed control at 125 g/ha: 0%
[9]; 500 g ai/ha, visual injury, 0 to 100 scale (0 no effect, 100 complete control), approx. 10 d, read-out: Plant response rating, Ragweed
  pest or weed control at 500 g/ha: 0%
[10]; Postemergence, visual injury after approximately 10 d, 0 to 100 scale where 0 is no effect and 100 is complete control, read-out: Plant response rating, Blackgrass
  pest or weed control at 125 g/ha: 30%
[10]; 500 g ai/ha, postemergence, visual injury, 0 to 100 scale (0 no effect, 100 complete control), approx. 10 d, read-out: Plant response rating, Blackgrass
  pest or weed control at 500 g/ha: 40%
[11]; visual injury on 0 to 100 scale (0 no effect, 100 complete control), approx. 10 d, read-out: Foxtail, Giant plant response rating
  pest or weed control at 125 g/ha: 80%
[11]; 500 g ai/ha, visual injury, 0 to 100 scale (0 no effect, 100 complete control), approx. 10 d, read-out: Plant response rating, Foxtail, Giant
  pest or weed control at 500 g/ha: 90%
[12]; Preemergence, visual injury rating after approximately 10 d, read-out: Pigweed plant response rating (0 to 100 scale, 0 is no effect, 100 is complete control)
  pest or weed control at 125 g/ha: 0%
[12]; preemergence, visual injury rating about 10 d after treatment, 0 to 100 scale (0 no effect, 100 complete control), read-out: Pigweed plant response rating
  pest or weed control at 500 g/ha: 0%

## CCOc1ccc([C@H]2CN(C)C(=O)[C@@H]2C(=O)Nc2ccccc2F)cc1 [Compound 903]
[1]; [14]
  pest or weed control at 250 g/ha: 0%
[2]; [14]
  pest or weed control at 250 g/ha: 0%
[3]; [14]
  pest or weed control at 250 g/ha: 0%
Rice (Oryra sativa); [14]
  pest or weed control at 250 g/ha: 0%
[4]; [15]
  plant injury at 125 g/ha: 0%
Kochia (Kochia scoparia); [16]
  pest or weed control at 125 g/ha: 0%
Corn (Zea mays); 125 g ai/ha, postemergence
  plant injury at 125 g/ha: 0%
[5]; [17]
  pest or weed control at 125 g/ha: 80%
[6]; [18]
  pest or weed control at 125 g/ha: 0%
[7]; [19]
  pest or weed control at 125 g/ha: 10%
[8]; [20]
  pest or weed control at 125 g/ha: 0%
[9]; [21]
  pest or weed control at 125 g/ha: 0%
[10]; [22]
  pest or weed control at 125 g/ha: 0%
[11]; [23]
  pest or weed control at 125 g/ha: 80%
[12]; [24]
  pest or weed control at 125 g/ha: 0%
[12]; [25]
  pest or weed control at 500 g/ha: 0%

## CN1C[C@H](c2cccc(F)c2)[C@@H](C(=O)Nc2ccccc2F)C1=O [Compound 822]
[1]; [14]
  pest or weed control at 250 g/ha: 0%
[2]; [14]
  pest or weed control at 250 g/ha: 75%
[3]; [14]
  pest or weed control at 250 g/ha: 85%
Rice (Oryra sativa); [14]
  pest or weed control at 250 g/ha: 0%
[4]; [15]
  plant injury at 125 g/ha: 0%
Kochia (Kochia scoparia); [16]
  pest or weed control at 125 g/ha: 0%
Corn (Zea mays); 125 g ai/ha, postemergence
  plant injury at 125 g/ha: 20%
[5]; [17]
  pest or weed control at 125 g/ha: 90%
[6]; [18]
  pest or weed control at 125 g/ha: 20%
[7]; [19]
  pest or weed control at 125 g/ha: 20%
[8]; [20]
  pest or weed control at 125 g/ha: 0%
[9]; [21]
  pest or weed control at 125 g/ha: 0%
[10]; [22]
  pest or weed control at 125 g/ha: 0%
[11]; [23]
  pest or weed control at 125 g/ha: 90%
[12]; [24]
  pest or weed control at 125 g/ha: 0%
[12]; [25]
  pest or weed control at 500 g/ha: 50%
